Laboratory results from paper PMC11407620, “Repurposing auranofin and meclofenamic acid as energy-metabolism inhibitors and anti-cancer drugs” (PLOS ONE, 2024).

What was measured:
[1] = system: U373 glioblastoma cells; test: Cell invasiveness, Boyden chamber; type: cell-based, human; details: 0.6 μM Aur, 24 h
Procedure: The 96-multiwell Boyden chambers (Merck Millipore, MA, USA) assay was performed for cellular invasiveness detection. Cancer cells (5 × 10^4 cells/well) were re-suspended in free-serum DMEM and placed in the upper Boyden chamber compartment. Free-serum DMEM was also placed in the lower compartment of the chamber. Afterwards, the Boyden chamber was placed at 37°C and 95% air/5% CO2 for 24 h. Invasive cancer cells within the lower chamber compartment were detected by using the calcein-AM (60 nM, 1 h) assay at 37°C. Calcein-fluorescence was measured at λexcitation = 485 nm and λemission = 520 nm in a Nunclon microplate reader (Roskilde, Denmark).
The Aur concentration added was 1.7, 0.8, 2 and 0.6 μM for HeLa, MDA-MB-231, MDA-MB-468 and U373 cells, respectively. n = 3; *p < 0.05, **p<0.01 vs. Control (Non-treated cells).

[2] = system: HeLa cells; test: Glycolysis flux (lactate production) in intact cells; type: cell-based, human
Procedure: (§1) For glycolysis flux, cells (3 mg protein/mL) were incubated in KR buffer. Glycolysis was started by adding 5 mM external glucose (Sigma-Aldrich, MO, USA), and cellular samples were withdrawn after 0 and 10 min of incubation at 37°C under smooth orbital shaking. At the indicated times, the cells were rapidly mixed with 3% (w/v) ice-cold perchloric acid and centrifuged. The supernatants were neutralized with 1N KOH/100mM Tris. To rule out lactate production by glutaminolysis, cells were also incubated with 10 mM 2-deoxyglucose (Sigma-Aldrich, MO, USA). Lactate was determined by a standard method with lactate dehydrogenase (Roche, Mannheim, Germany) following the NADH formation at 340 nm.

[3] = system: MDA-MB-231 cells; test: as above; type: cell-based, human; details: +Aur 0.8 μM, 24 h
Procedure: as §1

[4] = system: ovarian cancer A2780 cells; design: method as in PMID 35358852; details: cited from earlier work
[5] = design: method as in doi:10.1016/j.ccr.2017.02.015, PMID 36770718; details: cited from earlier work
[6] = system: Glioblastoma U373 cells; test: Cell proliferation, 24 h drug exposure; type: cell-based, human
Procedure: All metastatic (breast MDA-MB231, MDA-MB468, cervix HeLa, prostate PC3, colorectal HCT116, COLO205, glioblastoma U373), low-metastatic (breast MCF-7) cancer and non-cancer (fibroblast 3T3, cardiomyocytes H9C2) cell lines (American Type Culture Collection, Rockville, MD, USA) used in this study were cultured in Petri dishes in 20 mL of Dulbecco’s Modified Eagle’s Medium (DMEM, Sigma, MO, USA) supplemented with 10% fetal bovine serum (Biowest, Mexico) and 10,000 U penicillin/streptomycin (Sigma-Aldrich, MO, USA). […] For growth and maintenance, cells were incubated in 5% CO2/95% air at 37°C and kept until 80–90% of confluence was reached. Then, cells were harvested, washed by centrifugation and resuspended in Krebs-Ringer buffer (KR, 125 mM NaCl, 5 mM KCl, 25 mM Hepes, 1 mM MgCl2, 1 mM KH2PO4, 1.4 mM CaCl2, pH 7.4) for further use. For experimentation, cancer cells (3–5 x 10^6 cells) were cultured in DMEM (with 25 mM glucose) for 24 h in the absence of drugs. Afterwards, old-medium was replaced with fresh DMEM medium (with 25 mM glucose) in the absence (control, non-treated cells) or in the presence of logarithmic concentrations of Aur and MA for 24 h more, under the same culture conditions described above. Viability of cultured cells was determined by the trypan blue exclusion assay. The protein concentration was determined by the Lowry method.
For cell proliferation in the presence of drugs, cancer cells (20 x 10^3 cells/well) were grown in 96-well plates containing DMEM (Sigma-Aldrich) plus 10% bovine fetal serum for 24 h. […] The effect of these drugs on cell proliferation was determined in 96-well plates by the MTT (3-[4,5-dimethyl-thiazol-2-yl]-2,5-diphenyltetrazolium bromide) assay. The viability of cancer cells was > 95% after treatment with drugs.

[7] = system: MDA-MB-468 cells; test: OxPhos flux (oligomycin-sensitive respiration) in intact cells; type: cell-based, human; details: +MA 50 μM, 24 h
Procedure: For oxidative phosphorylation (OxPhos) flux, cells (2–5 mg protein/mL) were incubated at 37°C in air saturated KR medium plus 5 mM glucose. To distinguish the oxygen consumption associated to OxPhos, the cells were incubated with 5 μM oligomycin (Sigma-Aldrich, MO, USA), a potent, specific, and permeable inhibitor of the mitochondrial ATP synthase. The net OxPhos rate was determined by using a Clark type electrode, as previously described and by using a high-resolution respirometer (Oroboros Instruments, Innsbruck, Austria) at 37°C. The contribution of OxPhos and glycolysis to the cellular ATP supply was determined, respectively, from the net OxPhos rate (oligomycin-sensitive respiration) multiplied by the ATP/O or P»/O2 ratio that corresponds to 2.5 or 5, and from the rate of lactate production, assuming a stoichiometry of 1 mol of ATP produced per 1 mol of lactate produced.

[8] = system: Rat Heart Mitochondria; test: Oxygen consumption of isolated mitochondria; type: biochemical; details: 5 mM Glutamate/5 mM Malate
Procedure: Rat liver (RLM) and heart (RHM) mitochondria were isolated as described previously by differential centrifugation.
Respiration of AS-30D, liver and heart mitochondria (1 mg protein/mL) was assayed oxygraphically with a Clark-type O2 electrode in KME (120 mM KCl, 20 mM Mops, 1 mM EGTA) buffer pH 7.2 plus 2 mM KH2PO4, and different oxidizable substrates (as indicated in Results). For state 3 respiration, 600 nmol ADP were added. Mitochondria were incubated at 37°C with Aur and MA for 30–60 s before substrates were added. At the end of each respiratory measurement, dithionite was added to get the chemical zero oxygen signal.

For `CC(=O)OC[C@H]1O[C@@H]([S-])[C@H](OC(C)=O)[C@@H](OC(C)=O)[C@@H]1OC(C)=O.CCP(CC)CC.[Au+]` [Aur, [1-(thio-κS)-β-D-glucopyranose-2,3,4,6-tetraacetyl] (triethylphosphine)-gold], the “inhibition of cell invasiveness” value [1] was 75%, the Glycolysis flux ([2]; +Aur 1.7 μM, 24 h) was 4 ± 3 (3) nmol lactate min^-1 mg protein^-1 and the glycolytic flux inhibition ([2]; Aur alone (Table 2)) was 75%. The Glycolysis flux [3] was 3 ± 2 (3) nmol lactate min^-1 mg protein^-1, the “inhibition of cancer cell total oxygen consumption” value [4] was “around 25%” and the “stability in aqueous media” value [5] was “unstable”. For the same compound, the IC50 ([6]; Glioblastoma U373, 24 h, read-out: IC50 for proliferation cell rate) was 600 ± 100 nM, the “TI ratio (3T3/ cancer cells)” value ([6]; IC50 3T3 / IC50 U373) was 70 and the “TI ratio (H9C2/cancer cells)” value ([6]; IC50 H9C2 / IC50 U373) was 130.

In the case of `Cc1ccc(Cl)c(Nc2ccccc2C(=O)O)c1Cl` [MA, Meclofenamic acid], the OxPhos flux [7] is reported as 4.8 ± 0.8 nmol O2 min^-1 mg protein^-1, the “Net State 3 oxygen consumption rate” value ([8]; 10 μM MA) is reported as 48 ± 83 and the “Pseudo State 4 oxygen consumption rate” value ([8]; 10 μM MA) is reported as 143 ± 42 (3). For the same compound, the RC ([8]; 10 μM MA) was 1.4 ±0.6 (3), the “State 3 oxygen consumption rate” value ([8]; 10 μM MA) was 177 ± 56 (3) and the “State 4 oxygen consumption rate” value ([8]; 10 μM MA) was 126 ± 16 (3). For the same compound, the “Net State 3 oxygen consumption rate” value ([8]; 50 μM MA) was 12.5± 22, the “Pseudo State 4 oxygen consumption rate” value ([8]; 50 μM MA) was 134 ± 9.5 (3) and the RC ([8]; 50 μM MA) was 1 (3). For the same compound, the “State 3 oxygen consumption rate” value ([8]; 50 μM MA) was 139 ± 22 (3) and the “State 4 oxygen consumption rate” value ([8]; 50 μM MA) was 139 ± 22 (3).
